Experimental data as given in US10093630B2, “Pyrazole compounds and methods of making and using same” (ABIDE THERAPEUTICS, INC., priority 2014, dated 2018).

Assays:
Test in all cases: In vitro competitive activity-based protein profiling (gel-based, FP-Rh or HT-01 probe)
Format in all cases: biochemical
ABHD6 = target: T1, ABHD6 (Mus musculus, UniProt Q8R2Y0); conditions: for inhibition at 1 µM: 1 μM inhibitor, read-out: % Inhibition at 1 μM, C = ABHD6; for inhibition at 10 µM: 10 μM inhibitor, read-out: % Inhibition at 10 μM, C = ABHD6; for IC50: mouse brain membrane fraction or cell lysates, 30 min preincubation at 37° C., read-out: Mouse (IC50 value, nM) ABHD6
T1 construct: Proteomes (mouse brain membrane fraction or cell lysates); from tissue; host or cells: mouse brain membrane fraction (or cell lysates, not specified)
T1 sequence (Q8R2Y0 1-336): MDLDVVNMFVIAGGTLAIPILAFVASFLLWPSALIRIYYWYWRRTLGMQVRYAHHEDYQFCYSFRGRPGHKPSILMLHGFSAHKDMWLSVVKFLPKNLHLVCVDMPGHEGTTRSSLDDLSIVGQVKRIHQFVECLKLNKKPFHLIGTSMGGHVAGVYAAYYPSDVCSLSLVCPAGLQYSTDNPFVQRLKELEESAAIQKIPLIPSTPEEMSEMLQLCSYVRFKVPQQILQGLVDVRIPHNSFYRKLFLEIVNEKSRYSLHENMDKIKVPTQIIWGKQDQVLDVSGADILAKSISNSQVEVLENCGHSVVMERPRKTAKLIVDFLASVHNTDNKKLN
Procedure, shortened: (§1)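 Steps: inhibitor dilutions + proteome (1.0 mg/mL), 30 min, 37° C; add FP-Rh or HT-01 (50 μM DMSO stock), 30 min, 37° C; quench in SDS buffer; SDS-PAGE; gel imaging; band densitometry.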

FAAH = target: T2, FAAH (Mus musculus, UniProt O08914); conditions: for inhibition at 1 µM: 1 μM inhibitor, read-out: % Inhibition at 1 μM, B = FAAH; for inhibition at 10 µM: 10 μM inhibitor, read-out: % Inhibition at 10 μM, B = FAAH; for IC50: mouse brain membrane fraction or cell lysates, 30 min preincubation at 37° C., read-out: Mouse (IC50 value, nM) FAAH
T2 construct: Proteomes (mouse brain membrane fraction or cell lysates); from tissue; host or cells: mouse brain membrane fraction (or cell lysates, not specified)
T2 sequence (O08914 1-579): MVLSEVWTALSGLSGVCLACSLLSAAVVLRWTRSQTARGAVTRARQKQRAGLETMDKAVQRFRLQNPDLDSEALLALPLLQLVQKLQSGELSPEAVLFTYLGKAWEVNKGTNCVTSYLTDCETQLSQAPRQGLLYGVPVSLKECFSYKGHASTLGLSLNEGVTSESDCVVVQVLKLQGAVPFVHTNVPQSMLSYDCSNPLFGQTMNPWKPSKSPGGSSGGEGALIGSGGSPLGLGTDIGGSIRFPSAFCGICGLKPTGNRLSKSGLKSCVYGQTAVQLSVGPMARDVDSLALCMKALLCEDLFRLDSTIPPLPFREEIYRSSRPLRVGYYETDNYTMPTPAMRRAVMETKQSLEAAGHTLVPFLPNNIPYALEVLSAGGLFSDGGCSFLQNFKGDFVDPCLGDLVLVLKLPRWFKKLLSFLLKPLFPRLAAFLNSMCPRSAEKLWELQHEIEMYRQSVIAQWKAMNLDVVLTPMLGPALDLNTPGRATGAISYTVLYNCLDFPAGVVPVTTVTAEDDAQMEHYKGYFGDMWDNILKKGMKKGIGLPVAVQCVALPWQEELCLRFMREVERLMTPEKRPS
Procedure, shortened: as §1

MAGL = target: T3, MAGL (Mus musculus, UniProt O35678); conditions: for inhibition at 1 µM: 1 μM inhibitor; for inhibition at 10 µM: 10 μM inhibitor; for IC50: mouse brain membrane fraction or cell lysates, 30 min preincubation at 37° C., read-out: Mouse (IC50 value, nM) MAGL
T3 construct: Proteomes (mouse brain membrane fraction or cell lysates); from tissue; host or cells: mouse brain membrane fraction (or cell lysates, not specified)
T3 sequence (O35678 1-303): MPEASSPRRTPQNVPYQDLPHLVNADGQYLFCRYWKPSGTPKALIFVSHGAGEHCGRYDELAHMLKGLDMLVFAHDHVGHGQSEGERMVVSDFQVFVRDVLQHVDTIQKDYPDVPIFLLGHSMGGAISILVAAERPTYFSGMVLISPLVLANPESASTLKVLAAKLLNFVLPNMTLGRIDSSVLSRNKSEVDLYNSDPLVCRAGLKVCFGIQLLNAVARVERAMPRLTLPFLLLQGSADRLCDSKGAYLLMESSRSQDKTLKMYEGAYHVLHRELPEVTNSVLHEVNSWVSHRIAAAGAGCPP
Procedure, shortened: as §1

PLA2G7 = target: T4, PLA2G7 (Mus musculus, UniProt Q60963); conditions: for inhibition at 1 µM: 1 μM inhibitor, read-out: % Inhibition at 1 μM, D = PLA2G7; for inhibition at 10 µM: 10 μM inhibitor, read-out: % Inhibition at 10 μM, D = PLA2G7; for IC50: mouse brain membrane fraction or cell lysates, 30 min preincubation at 37° C.
T4 construct: Proteomes (mouse brain membrane fraction or cell lysates); from tissue; host or cells: mouse brain membrane fraction (or cell lysates, not specified)
T4 sequence (Q60963 22-440): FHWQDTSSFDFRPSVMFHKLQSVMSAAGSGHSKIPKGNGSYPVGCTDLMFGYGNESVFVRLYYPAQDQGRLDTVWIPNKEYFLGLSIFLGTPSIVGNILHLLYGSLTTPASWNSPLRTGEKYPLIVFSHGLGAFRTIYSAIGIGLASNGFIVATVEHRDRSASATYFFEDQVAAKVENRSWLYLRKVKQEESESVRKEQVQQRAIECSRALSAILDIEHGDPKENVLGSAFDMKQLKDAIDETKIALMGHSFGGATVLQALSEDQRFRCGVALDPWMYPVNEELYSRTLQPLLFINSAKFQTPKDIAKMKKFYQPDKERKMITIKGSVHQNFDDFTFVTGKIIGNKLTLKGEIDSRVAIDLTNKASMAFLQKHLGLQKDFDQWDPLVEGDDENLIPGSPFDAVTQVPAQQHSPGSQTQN
Procedure, shortened: as §1

Structure (SMILES) | inhibition at 1 µM (ABHD6) | inhibition at 10 µM (ABHD6) | inhibition at 1 µM (FAAH) | inhibition at 10 µM (FAAH) | inhibition at 1 µM (MAGL) | inhibition at 10 µM (MAGL) | inhibition at 1 µM (PLA2G7) | inhibition at 10 µM (PLA2G7) | IC50 (ABHD6) | IC50 (FAAH) | IC50 (MAGL) | IC50 (PLA2G7)
CN1CCN(C(=O)n2cc(C(F)(F)F)cn2)CC1 [Example 151, (4-Methylpiperazin-1-yl)(4-(trifluoromethyl)-1H-pyrazol-1-yl)methanone] | > 75% | > 75% | > 75% | > 75% | < 25% | > 75% | 25 to 75% | > 75% | – | – | – | –
O=C(N1CCN(Cc2ccccc2)CC1)n1cc(C(F)(F)F)cn1 [Example 152, (4-Benzylpiperazin-1-yl)(4-(trifluoromethyl)-1H-pyrazol-1-yl)methanone] | > 75% | > 75% | > 75% | > 75% | > 75% | > 75% | > 75% | > 75% | – | – | – | –
O=C(c1ccccc1)N1CCN(C(=O)n2cc(C(F)(F)F)cn2)CC1 [Example 153, (4-Benzoylpiperazin-1-yl)(4-(trifluoromethyl)-1H-pyrazol-1-yl)methanone] | < 25% | > 75% | < 25% | 25 to 75% | > 75% | > 75% | > 75% | > 75% | – | – | – | –
CC(=O)N1CCCN(C(=O)n2cc(C(F)(F)F)cn2)CC1 [Example 154, 1-(4-(4-(trifluoromethyl)-1H-pyrazole-1-carbonyl)-1,4-diazepan-1-yl)ethanone] | < 25% | > 75% | < 25% | 25 to 75% | < 25% | < 25% | 25 to 75% | > 75% | – | – | – | –
CS(=O)(=O)N1CCCN(C(=O)n2cc(C(F)(F)F)cn2)CC1 [Example 155, (4-(Methylsulfonyl)-1,4-diazepan-1-yl)(4-(trifluoromethyl)-1H-pyrazol-1-yl)methanone] | < 25% | > 75% | 25 to 75% | > 75% | < 25% | 25 to 75% | > 75% | > 75% | – | – | – | –
CN1CCCN(C(=O)n2cc(C(F)(F)F)cn2)CC1 [Example 156, (4-Methyl-1,4-diazepan-1-yl)(4-(trifluoromethyl)-1H-pyrazol-1-yl)methanone] | < 25% | < 25% | < 25% | 25 to 75% | < 25% | < 25% | < 25% | > 75% | – | – | – | –
O=C(N1CCCN(Cc2ccccc2)CC1)n1cc(C(F)(F)F)cn1 [Example 157, (4-Benzyl-1,4-diazepan-1-yl)(4-(trifluoromethyl)-1H-pyrazol-1-yl)methanone] | > 75% | > 75% | > 75% | > 75% | > 75% | > 75% | < 25% | > 75% | > 1000 nM | 100 to 1000 nM | > 1000 nM | > 1000 nM
O=C(c1ccccc1)N1CCCN(C(=O)n2cc(C(F)(F)F)cn2)CC1 [Example 158, (4-Benzoyl-1,4-diazepan-1-yl)(4-(trifluoromethyl)-1H-pyrazol-1-yl)methanone] | > 75% | > 75% | > 75% | > 75% | > 75% | > 75% | > 75% | > 75% | > 1000 nM | > 1000 nM | > 1000 nM | > 1000 nM
CC(=O)N(C)CCN(C)C(=O)n1cc(C(F)(F)F)cn1 [Example 159, N-Methyl-N-(2-(N-methylacetamido)ethyl)-4-(trifluoromethyl)-1H-pyrazole-1-carboxamide] | < 25% | > 75% | < 25% | 25 to 75% | < 25% | < 25% | < 25% | > 75% | – | – | – | –
CN(CCN(C)C(=O)n1cc(C(F)(F)F)cn1)C(=O)c1ccccc1 [Example 160, N-methyl-N-(2-(N-methylbenzamido)ethyl)-4-(trifluoromethyl)-1H-pyrazole-1-carboxamide] | < 25% | > 75% | > 75% | > 75% | < 25% | > 75% | > 75% | > 75% | – | – | – | –
CC(=O)N1CCN(C(=O)n2cc(C)cn2)CC1 [Example 161, 1-(4-(4-Methyl-1H-pyrazole-1-carbonyl)piperazin-1-yl)ethanone] | < 25% | < 25% | < 25% | < 25% | < 25% | < 25% | < 25% | > 75% | – | – | – | –
Cc1cnn(C(=O)N2CCN(S(C)(=O)=O)CC2)c1 [Example 162, (4-Methyl-1H-pyrazol-1-yl)(4-(methylsulfonyl)piperazin-1-yl)methanone] | < 25% | 25 to 75% | < 25% | < 25% | < 25% | < 25% | < 25% | > 75% | – | – | – | –
Cc1cnn(C(=O)N2CCN(C)CC2)c1 [Example 163, (4-Methyl-1H-pyrazol-1-yl)(4-methylpiperazin-1-yl)methanone] | < 25% | 25 to 75% | < 25% | < 25% | < 25% | < 25% | < 25% | < 25% | – | – | – | –
Cc1cnn(C(=O)N2CCN(C(=O)c3ccccc3)CC2)c1 [Example 164, (4-Benzoylpiperazin-1-yl)(4-methyl-1H-pyrazol-1-yl)methanone] | < 25% | < 25% | < 25% | < 25% | < 25% | 25 to 75% | < 25% | > 75% | – | – | – | –
CC(=O)N1CCCN(C(=O)n2cc(C)cn2)CC1 [Example 165, 1-(4-(4-Methyl-1H-pyrazole-1-carbonyl)-1,4-diazepan-1-yl)ethanone] | – | < 25% | – | 25 to 75% | – | < 25% | – | < 25% | – | – | – | –
